What follows are compounds tested against T1, human Cav3.2 T-type Ca2+ channel (Homo sapiens, UniProt O95180) (assay: Inhibitory effect for intracellular calcium response via Cav3.2 T-type Ca2+ channels (FLIPR Calcium 3 Assay Kit)). Conditions: not given.
T1 construct: expressed in transfected cells; host or cells: KJMGER8 cells (Namalwa cell-derived cell line)
T1 sequence (O95180 whole entry): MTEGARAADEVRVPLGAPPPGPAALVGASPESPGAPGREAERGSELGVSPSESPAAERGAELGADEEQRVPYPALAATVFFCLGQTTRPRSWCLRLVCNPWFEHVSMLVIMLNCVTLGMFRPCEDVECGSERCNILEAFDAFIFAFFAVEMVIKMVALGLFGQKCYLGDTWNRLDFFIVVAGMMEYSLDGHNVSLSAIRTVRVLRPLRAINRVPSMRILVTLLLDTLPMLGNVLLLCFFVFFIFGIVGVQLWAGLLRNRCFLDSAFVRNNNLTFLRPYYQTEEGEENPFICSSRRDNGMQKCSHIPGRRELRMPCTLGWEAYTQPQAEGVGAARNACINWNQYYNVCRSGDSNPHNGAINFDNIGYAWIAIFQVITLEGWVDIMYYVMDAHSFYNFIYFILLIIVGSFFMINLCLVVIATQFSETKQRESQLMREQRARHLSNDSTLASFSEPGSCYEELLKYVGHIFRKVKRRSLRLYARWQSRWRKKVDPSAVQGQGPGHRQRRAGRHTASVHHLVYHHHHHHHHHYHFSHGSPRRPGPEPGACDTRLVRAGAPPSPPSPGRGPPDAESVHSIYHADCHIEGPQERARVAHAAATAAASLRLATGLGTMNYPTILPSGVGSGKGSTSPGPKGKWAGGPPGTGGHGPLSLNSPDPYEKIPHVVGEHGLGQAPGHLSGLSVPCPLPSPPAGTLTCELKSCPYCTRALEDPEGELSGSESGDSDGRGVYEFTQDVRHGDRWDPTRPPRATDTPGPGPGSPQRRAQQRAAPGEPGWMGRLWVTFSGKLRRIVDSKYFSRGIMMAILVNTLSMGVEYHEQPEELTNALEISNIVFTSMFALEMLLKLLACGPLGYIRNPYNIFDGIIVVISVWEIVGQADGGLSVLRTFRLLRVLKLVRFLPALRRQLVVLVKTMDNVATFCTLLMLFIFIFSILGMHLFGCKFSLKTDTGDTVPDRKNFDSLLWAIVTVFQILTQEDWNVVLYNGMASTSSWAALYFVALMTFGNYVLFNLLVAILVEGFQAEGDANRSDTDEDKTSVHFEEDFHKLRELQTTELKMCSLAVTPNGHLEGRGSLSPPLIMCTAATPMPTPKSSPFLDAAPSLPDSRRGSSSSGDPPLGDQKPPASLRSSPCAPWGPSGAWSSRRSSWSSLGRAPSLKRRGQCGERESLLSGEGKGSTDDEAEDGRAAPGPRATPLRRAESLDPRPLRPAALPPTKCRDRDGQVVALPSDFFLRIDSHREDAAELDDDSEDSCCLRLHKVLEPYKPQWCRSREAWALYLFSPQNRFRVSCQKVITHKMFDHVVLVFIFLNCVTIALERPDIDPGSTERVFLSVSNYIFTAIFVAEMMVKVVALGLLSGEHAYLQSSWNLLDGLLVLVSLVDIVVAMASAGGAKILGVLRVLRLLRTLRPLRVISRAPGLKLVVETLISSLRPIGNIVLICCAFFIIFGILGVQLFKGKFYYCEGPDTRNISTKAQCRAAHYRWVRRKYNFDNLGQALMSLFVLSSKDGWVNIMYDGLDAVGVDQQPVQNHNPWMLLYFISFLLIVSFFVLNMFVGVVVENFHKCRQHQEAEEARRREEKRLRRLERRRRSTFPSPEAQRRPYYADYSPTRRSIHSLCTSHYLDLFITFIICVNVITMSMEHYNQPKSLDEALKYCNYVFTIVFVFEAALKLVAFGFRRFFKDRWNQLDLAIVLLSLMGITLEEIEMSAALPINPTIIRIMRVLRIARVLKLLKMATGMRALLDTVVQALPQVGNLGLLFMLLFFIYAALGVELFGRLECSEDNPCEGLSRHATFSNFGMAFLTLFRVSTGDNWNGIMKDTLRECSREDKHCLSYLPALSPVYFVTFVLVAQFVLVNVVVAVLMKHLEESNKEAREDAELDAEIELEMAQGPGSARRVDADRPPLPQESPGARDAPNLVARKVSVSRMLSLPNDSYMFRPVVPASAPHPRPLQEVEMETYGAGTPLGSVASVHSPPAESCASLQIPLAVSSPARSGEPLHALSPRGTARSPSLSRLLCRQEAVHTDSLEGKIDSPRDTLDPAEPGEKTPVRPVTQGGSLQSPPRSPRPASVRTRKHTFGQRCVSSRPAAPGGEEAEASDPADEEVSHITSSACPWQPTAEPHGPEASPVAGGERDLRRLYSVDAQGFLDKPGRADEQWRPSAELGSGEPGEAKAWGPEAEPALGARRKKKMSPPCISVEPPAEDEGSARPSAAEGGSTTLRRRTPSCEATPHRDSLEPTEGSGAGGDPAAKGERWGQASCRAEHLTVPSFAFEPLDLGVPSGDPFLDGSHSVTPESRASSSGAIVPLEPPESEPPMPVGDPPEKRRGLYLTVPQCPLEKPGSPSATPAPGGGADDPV
Type: cell-based
In the case of `Cc1c(Cl)c(C(=O)NC2CCOCC2)cc2nc(C(F)(F)F)c(CC3CCC(F)(F)CC3)n12` [Compound 124, 6-Chloro-3-(4,4-difluorocyclohexylmethyl)-5-methyl-N-(tetrahydro-2H-pyran-4-yl)-2-trifluoromethylimidazo[1,2-a]pyridine-7-carboxamide], the IC50 is reported as < 100 nM.
For `Cc1c(I)c(C(=O)Nc2ccccc2)cc2nc(C(F)(F)F)c(CC3CCC(F)(F)CC3)n12` [Compound 125, 3-(4,4-Difluorocyclohexylmethyl)-6-iodo-5-methyl-N-phenyl-2-trifluoromethylimidazo[1,2-a]pyridine-7-carboxamide], the IC50 was < 100 nM.
In the case of `CC(C)c1nc2cc(C(=O)Nc3ccccc3)ccn2c1S(=O)(=O)N(C(C)C)C1CC1` [Compound 130, 3-(N-Cyclopropyl-N-isopropylsulfamoyl)-2-isopropyl-N-phenylimidazo[1,2-a]pyridine-7-carboxamide], the IC50 is reported as < 100 nM.
For `CC(C)c1nc2cc(C(=O)Nc3ccccc3)ccn2c1S(=O)(=O)N(C1CC1)C1CC1` [Compound 131, 3-(N,N-Dicyclopropylsulfamoyl)-2-isopropyl-N-phenylimidazo[1,2-a]pyridine-7-carboxamide], the IC50 was < 100 nM.
`CC(C)c1nc2cc(C(=O)N3CCc4ccccc43)ccn2c1S(=O)(=O)N1CCCCC1` [Compound 136, Indolin-1-yl{2-isopropyl-3-(piperidin-1-ylsulfonyl)imidazo[1,2-a]pyridin-7-yl}methanone] was tested, and the IC50 was < 100 nM.
`O=C(Nc1ccccc1)c1ccn2c(S(=O)(=O)N3CC(F)(F)C3)c(C3CC3)nc2c1` [Compound 138, 2-Cyclopropyl-3-(3,3-difluoroazetidin-1-ylsulfonyl)-N-phenylimidazo[1,2-a]pyridine-7-carboxamide] was tested, and the IC50 was < 100 nM.
In the case of `CN(C(C)(C)C)S(=O)(=O)c1c(C(F)(F)F)nc2cc(C(=O)Nc3ccccc3)ccn12` [Compound 147, 3-(N-tert-Butyl-N-methylsulfamoyl)-N-phenyl-2-trifluoromethylimidazo[1,2-a]pyridine-7-carboxamide], the IC50 is reported as < 100 nM.
With `CC(C)c1nc2cc(C(=O)NC3CC(F)(F)C3)c(Cl)cn2c1S(=O)(=O)N1CC(F)(F)C1` [Compound 151, 6-Chloro-3-(3,3-difluoroazetidin-1-ylsulfonyl)-N-(3,3-difluorocyclobutyl)-2-isopropylimidazo[1,2-a]pyridine-7-carboxamide] the IC50 was < 100 nM.
`CC(C)c1nc2cc(C(=O)NC3CCOC(C)(C)C3)c(Cl)cn2c1S(=O)(=O)N1CC(F)(F)C1` (stereo not shown) [Compound 153, 6-Chloro-3-(3,3-difluoroazetidin-1-ylsulfonyl)-N-(2,2-dimethyltetrahydro-2H-pyran-4-yl)-2-isopropylimidazo[1,2-a]pyridine-7-carboxamide] was tested, and the IC50 was < 100 nM.
In the case of `CC(C)(C)NS(=O)(=O)c1c(C(C)(C)C)nc2cc(C(=O)NC3CCOCC3)c(Cl)cn12` [Compound 162, 2-tert-Butyl-3-(N-tert-butylsulfamoyl)-6-chloro-N-(tetrahydro-2H-pyran-4-yl)imidazo[1,2-a]pyridine-7-carboxamide], the IC50 is reported as < 100 nM.
`Cc1cn2c(S(=O)(=O)NC(C)(C)C)c(C(C)C)nc2cc1C(=O)Nc1ccccc1` [Compound 168, 3-(N-tert-Butylsulfamoyl)-2-isopropyl-6-methyl-N-phenylimidazo[1,2-a]pyridine-7-carboxamide] was tested, and the IC50 was < 100 nM.

Same assay, conditions: human Cav3.2-expressing KJMGER8 cells (Namalwa-derived); calcium response induced by 5 mmol/L CaCl2; normalised to 3 μmol/L mibefradil; read-out: IC50 for the human Cav3.2 T-type Ca2+ current
`C=Cc1cn2c(CC3CCC(F)(F)CC3)c(C(F)(F)F)nc2cc1C(=O)Nc1ccccc1` [Compound 120, 3-(4,4-Difluorocyclohexylmethyl)-N-phenyl-2-trifluoromethyl-6-vinylimidazo[1,2-a]pyridine-7-carboxamide] was tested, and the IC50 was < 100 nM.
In the case of `Cc1cc(-c2nc3ccccc3[nH]2)cc2nc(C(F)(F)F)c(CC3CCC(F)(F)CC3)n12` [Compound 127, 2-{3-(4,4-Difluorocyclohexylmethyl)-5-methyl-2-trifluoromethylimidazo[1,2-a]pyridin-7-yl}-1H-benzimidazole], the IC50 is reported as < 100 nM.
In the case of `CC(C)c1nc2cc(C(=O)Nc3ccccc3)ccn2c1S(=O)(=O)NC(C1CC1)C1CC1` [Compound 129, 3-{N-(Dicyclopropylmethyl)sulfamoyl}-2-isopropyl-N-phenylimidazo[1,2-a]pyridine-7-carboxamide], the IC50 is reported as < 100 nM.
For `CC(C)c1nc2cc(C(=O)Nc3ccccc3)ccn2c1S(=O)(=O)N(C)c1ccccc1` [Compound 132, 2-Isopropyl-3-(N-methyl-N-phenylsulfamoyl)-N-phenylimidazo[1,2-a]pyridine-7-carboxamide], the IC50 was < 100 nM.
For `CC(C)c1nc2cc(C(=O)NOCc3ccccc3)ccn2c1S(=O)(=O)N1CC(F)(F)C1` [Compound 135, N-(Benzyloxy)-3-(3,3-difluoroazetidin-1-ylsulfonyl)-2-isopropylimidazo[1,2-a]pyridine-7-carboxamide], the IC50 was < 100 nM.
`CS(=O)(=O)c1nc2cc(C(=O)Nc3ccccc3)ccn2c1S(=O)(=O)N1CCC(F)(F)CC1` [Compound 143, 3-(4,4-Difluoropiperidin-1-ylsulfonyl)-2-(methylsulfonyl)-N-phenylimidazo[1,2-a]pyridine-7-carboxamide] was tested, and the IC50 was < 100 nM.
`O=C(Nc1ccccc1)c1ccn2c(S(=O)(=O)N3CC(F)(F)C3)c(C(F)(F)F)nc2c1` [Compound 146, 3-(3,3-Difluoroazetidin-1-ylsulfonyl)-N-phenyl-2-trifluoromethylimidazo[1,2-a]pyridine-7-carboxamide] was tested, and the IC50 was < 100 nM.
For `CC(C)c1nc2cc(C(=O)Nc3ccccc3N)c(Cl)cn2c1S(=O)(=O)N1CC(F)(F)C1` [Compound 149, N-(2-Aminophenyl)-6-chloro-3-(3,3-difluoroazetidin-1-ylsulfonyl)-2-isopropylimidazo[1,2-a]pyridine-7-carboxamide], the IC50 was < 100 nM.
In the case of `CC(C)c1nc2cc(C(=O)NCC3CC3)c(Cl)cn2c1S(=O)(=O)N1CC(F)(F)C1` [Compound 150, 6-Chloro-N-cyclopropylmethyl-3-(3,3-difluoroazetidin-1-ylsulfonyl)-2-isopropylimidazo[1,2-a]pyridine-7-carboxamide], the IC50 is reported as < 100 nM.
With `CC(C)c1nc2cc(C(=O)NOCc3ccccc3)c(Cl)cn2c1S(=O)(=O)N1CC(F)(F)C1` [Compound 152, N-Benzyloxy-6-chloro-3-(3,3-difluoroazetidin-1-ylsulfonyl)-2-isopropylimidazo[1,2-a]pyridine-7-carboxamide] the IC50 was < 100 nM.
In the case of `CC(C)c1nc2cc(C(=O)Nc3ccccc3)c(Cl)cn2c1S(=O)(=O)NC1CC(F)(F)C1` [Compound 154, 6-Chloro-3-{N-(3,3-difluorocyclobutyl)sulfamoyl}-2-isopropyl-N-phenylimidazo[1,2-a]pyridine-7-carboxamide], the IC50 is reported as < 100 nM.
`CC(C)c1nc2cc(C(=O)Nc3ccccc3)c(Cl)cn2c1S(=O)(=O)Nc1ccccc1` [Compound 155, 6-Chloro-2-isopropyl-N-phenyl-3-(N-phenylsulfamoyl)imidazo[1,2-a]pyridine-7-carboxamide] was tested, and the IC50 was < 100 nM.
`CC(C)c1nc2cc(C(=O)Nc3ccccc3)c(Cl)cn2c1S(=O)(=O)NC(C)(C)C` [Compound 156, 3-(N-tert-Butylsulfamoyl)-6-chloro-2-isopropyl-N-phenylimidazo[1,2-a]pyridine-7-carboxamide] was tested, and the IC50 was < 100 nM.
In the case of `Cc1cc(NC(=O)c2cc3nc(C(C)C)c(S(=O)(=O)NC(C)(C)C)n3cc2Cl)on1` [Compound 157, 3-(N-tert-Butylsulfamoyl)-6-chloro-2-isopropyl-N-(3-methylisooxazol-5-yl)imidazo[1,2-a]pyridine-7-carboxamide], the IC50 is reported as < 100 nM.
In the case of `CC(C)c1nc2cc(C(=O)NC3CC(F)(F)C3)c(Cl)cn2c1S(=O)(=O)NC(C)(C)C` [Compound 158, 3-(N-tert-Butylsulfamoyl)-6-chloro-N-(3,3-difluorocyclobutyl)-2-isopropylimidazo[1,2-a]pyridine-7-carboxamide], the IC50 is reported as < 100 nM.
With `CC(C)c1nc2cc(C(=O)NOCc3ccccc3)c(Cl)cn2c1S(=O)(=O)NC(C)(C)C` [Compound 159, N-Benzyloxy-3-(N-tert-butylsulfamoyl)-6-chloro-2-isopropylimidazo[1,2-a]pyridine-7-carboxamide] the IC50 was < 100 nM.
For `Cc1cn2c(S(=O)(=O)C3CCCCC3)c(C(C)C)nc2cc1C(=O)Nc1ccccc1` [Compound 163, 3-(Cyclohexylsulfonyl)-2-isopropyl-6-methyl-N-phenyl-imidazo[1,2-a]pyridine-7-carboxamide], the IC50 was < 100 nM.
`Cc1cn2c(S(=O)(=O)N3CCC(F)(F)CC3)c(C(C)C)nc2cc1C(=O)Nc1ccncc1` [Compound 165, 3-(4,4-Difluoropiperidin-1-ylsulfonyl)-2-isopropyl-6-methyl-N-(pyridin-4-yl)imidazo[1,2-a]pyridine-7-carboxamide] was tested, and the IC50 was < 100 nM.
`Cc1cn2c(S(=O)(=O)N3CC4(COC4)C3)c(C(C)C)nc2cc1C(=O)Nc1ccccc1` [Compound 166, 3-(2-Oxa-6-azaspiro[3.3]heptan-6-ylsulfonyl)-2-isopropyl-6-methyl-N-phenylimidazo[1,2-a]pyridine-7-carboxamide] was tested, and the IC50 was < 100 nM.
`CC(C)c1nc2cc(-c3nc4ccccc4[nH]3)c(Cl)cn2c1S(=O)(=O)N1CC(F)(F)C1` [Compound 170, 2-{6-Chloro-3-(3,3-difluoroazetidin-1-ylsulfonyl)-2-isopropylimidazo[1,2-a]pyridin-7-yl}-1H-benzimidazole] was tested, and the IC50 was < 100 nM.
With `CC(C)c1nc2nc(C(=O)Nc3ccccc3)ccn2c1S(=O)(=O)N1CCC(F)(F)CC1` [Compound 171, 3-(4,4-Difluoropiperidin-1-ylsulfonyl)-2-isopropyl-N-phenylimidazo[1,2-a]pyrimidine-7-carboxamide] the IC50 was < 100 nM.
`CC(C)c1nc2nc(C(=O)NC3CCCCC3)ccn2c1S(=O)(=O)N1CCC(F)(F)CC1` [Compound 172, N-Cyclohexyl-3-(4,4-difluoropiperidin-1-ylsulfonyl)-2-isopropylimidazo[1,2-a]pyrimidine-7-carboxamide] was tested, and the IC50 was < 100 nM.
`CC(C)c1nc2cc(NC(=O)C3CCCCC3)ncn2c1S(=O)(=O)N1CCC(F)(F)CC1` [Compound 175, N-{3-(4,4-Difluoropiperidin-1-ylsulfonyl)-2-isopropylimidazo[1,2-c]pyrimidin-7-yl}cyclohexanecarboxamide] was tested, and the IC50 was < 100 nM.
